One series in a line: logP determination (acidic, pH 2.3). Format: physicochemical. The following applies: acidic, read-out: logP (acidic).
Regarding `Cc1cc(Oc2nc(C(C)(C)C)ns2)c(C)cc1N=CN(C)C(C)C` [A-2, N′-{4-[(3-(tert-butyl)-1,2,4-thiadiazol-5-yl)oxy]-2,5-dimethylphenyl}-N-isopropyl-N-methylimidoformamide], the logP amounted to 2.15.

As for `Cc1cc(Oc2nc(C(C)(C)C)ns2)c(C)cc1/N=C/N1CCCCC1` [A-3, 4-[(3-(tert-butyl)-1,2,4-thiadiazol-5-yl)oxy]-2,5-dimethyl-N-[(1E)-piperidin-1-ylmethylene]aniline], the logP is 2.22.

Take `CCN(C)C=Nc1cc(Cl)c(Oc2nc(C(C)(C)C)ns2)cc1C` [A-8, N′-{4-[(3-(tert-butyl)-1,2,4-thiadiazol-5-yl)oxy]-5-chloro-2-methylphenyl}-N-ethyl-N-methylimidoformamide]: the logP stood at 2.11.

On to `Cc1cc(Oc2nc(C(C)(C)C)ns2)c(Cl)cc1/N=C/N1CCCCC1` [A-9, 4-[(3-(tert-butyl)-1,2,4-thiadiazol-5-yl)oxy]-5-chloro-2-methyl-N-[(1E)-piperidin-1-ylmethylene]aniline], for which the logP worked out at 2.36.

The same series, now with this note: read-out: log P (pH 2.3).
On to `CC(C)(C)c1nsc(Cl)n1` [3-(tert-Butyl)-5-chloro-1,2,4-thiadiazole], for which the logP was 3.44.

As for `Cc1cc(Oc2nc(C(C)(C)C)ns2)c(C)cc1N` [4-[(3-(tert-Butyl)-1,2,4-thiadiazol-5-yl)oxy]-2,5-dimethylaniline], the logP was 3.29.

On to `CCN(C)/C=N/c1cc(C)c(Oc2nc(C(C)(C)C)ns2)cc1C` [A-1, N′-{4-[(3-(tert-butyl)-1,2,4-thiadiazol-5-yl)oxy]-2,5-dimethylphenyl}-N-ethyl-N-methylimidoformamide], for which the logP worked out at 2.02.

For the origin of these results see patent US8168567B2, “Thiadiazolyl oxyphenyl amidines and the use thereof as a fungicide” (Bayer Cropscience AG, priority 2007, dated 2012).
